According to patent publication US6495569B1, “Imidazolidine compounds” (Millennium Pharmaceuticals, Inc., priority 2001, dated 2002):

These compounds were tested against T1, CXCR3 (Homo sapiens, UniProt P49682) (assay: CXCR3/IP-10 radioligand binding assay (125I-IP-10 competition on CXCR3.L1/2 cell membranes)). Details: test compound 10 μmol/L; 125I-labeled IP-10 0.05 to 0.2 nmol/L; CXCR3.L1/2 transfectant cell membranes; 60 min at room temperature.
T1 construct: expressed in transfected cells; membrane preparation
T1 sequence (P49682 1-368): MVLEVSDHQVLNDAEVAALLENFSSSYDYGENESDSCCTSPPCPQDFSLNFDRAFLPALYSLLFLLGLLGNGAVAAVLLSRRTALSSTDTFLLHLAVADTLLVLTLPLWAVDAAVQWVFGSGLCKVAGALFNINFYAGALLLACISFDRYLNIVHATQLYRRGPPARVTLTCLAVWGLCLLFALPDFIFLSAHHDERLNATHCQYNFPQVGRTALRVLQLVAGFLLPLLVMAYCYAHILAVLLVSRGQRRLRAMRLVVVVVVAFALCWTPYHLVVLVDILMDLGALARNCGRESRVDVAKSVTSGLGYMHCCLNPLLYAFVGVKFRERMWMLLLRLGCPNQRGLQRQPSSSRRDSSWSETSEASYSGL
Source text: The activity of the compounds of the present invention can be assessed using a suitable assay, such as a receptor binding assay, a chemotaxis assays, an extracellular acidification assay or a calcium flux assay (see, for example, Hesselgesser et al., J. Biol. Chem. 273(25):15687-15692 (1998) and WO 98/02151). For example, as described herein, small organic molecule antagonists of CXCR3/IP-10 binding have been identified utilizing cells engineered to express recombinant human CXCR3 (CXCR3.L1/2) and which bind ^125I-IP10 and chemotax in response to IP-10, Mig or I-TAC. Specifically, a high through-put receptor binding assay, which monitors ^125I-IP10 binding to CXCR3.L1/2 cell membranes, was used to identify small molecule antagonists which block binding of IP-10, Mig or I-TAC to CXCR3.
CXCR3.L1/2 cells were pelleted by centrifugation and stored at −80° C.. The cells were lysed by thawing and resuspending at about 1.5×10^7 cells/ml in a hypotonic buffer (5 mmol/L HEPES (pH 7.2), 2 mmol/L EDTA, 10 μg/ml each leupeptin, aprotinin, and chymostatin, and 100 μg/ml PMSF (all from Sigma, St. Louis)). Nuclei and cellular debris was removed by centrifugation ([…], at 4° C.) for 10 min. The supernatant was transferred to chilled centrifuge tubes (Nalge, Rochester, N.Y.) and the membrane fraction was recovered by centrifugation (25,000 g at 4° C.) for 45 min. The membrane pellet was resuspended in freezing buffer (10 mM HEPES (pH 7.2), 300 mmol/L Sucrose, 5 μg/ml each of leupeptin, aprotinin, and chymostatin, and 10 μg/ml PMSF). The total protein concentration was determined using a coomassie blue staining protein concentration assay kit (BioRad). The membrane preparation was aliquoted and stored at −80° C. until time of use.
CXCR3/IP-10 binding was performed in 96-well polypropylene plates (Costar) in a final volume of 0.1 ml of HBB buffer (50 mmol/L Hepes pH 7.4, 1 mmol/L CaCl2, 5 mmol/L MgCl2, 0.02% sodium azide, 0.5% BSA (bovine serum albumin)) containing 1 to 5 μg of CXCR3.L1/2 transfectant cell membrane protein and 0.05 to 0.2 nmol/L ^125I-labeled IP-10 (NEN, Boston, Mass.). Competition binding experiments were performed by including variable concentrations of unlabeled IP-10 or test compound. Nonspecific binding was determined following the addition of a 250 nmol/L unlabelled IP-10. Samples were incubated for 60 min at room temperature, and bound and free tracer (^125I-IP10) were separated by filtration through 96-well GF/B filterplates (Packard) presoaked in 0.3% polyethyleneimine. The filters were washed in HBB further supplemented with 0.5 mol/L NaCl, dried, and the amount of bound radioactivity determined by liquid scintillation counting. The competition is presented as the percent specific binding as calculated by 100×[(S−B)/(T−B)], where S is the radioactivity bound for each sample, B is background binding, and T is total bound in the absence of competitors. Duplicates were used throughout the experiments.
For “1-{2-(3-Piperidinomethylbenzylthio)ethyl}-3-(1-acenaphthenyl)-2imidazolidinylidenepropanedinitrile [Compound 4]”, the “% inhibition at 10 μmol/L” value was 95%. “1-{2-(3-Piperidinomethylbenzylthio)ethyl}-3-(1-naphthoyl)-2-imidazolidinylidenepropanedinitrile [Compound 7]” was tested, and the “% inhibition at 10 μmol/L” value was 93%. For “1-{2-(3-Piperidinomethylbenzylthio)ethyl}-3-(2,3-methylenedioxybenzyl)-2-imidazolidinylidenepropanedinitrile [Compound 6]”, the “% inhibition at 10 μmol/L” value was 84%. In the case of “1-{2-(3-Piperidinomethylbenzylthio)ethyl}-3-{1-(8-methylnaphthyl)methyl}-2-imidazolidinylidenepropanedinitrile [Compound 11]”, the “% inhibition at 10 μmol/L” value is reported as 96%. With `N#CC(C#N)=C1N(CCSCc2cccc(CN3CCCCC3)c2)CCN1Cc1cccc2ccccc12` [Compound 1, 1-{2-(3-Piperidinomethylbenzylthio)ethyl}-3-(1-naphthylmethyl)-2-imidazolidinylidenepropanedinitrile] the “% inhibition at 10 μmol/L” value was 108%. With `N#CC(C#N)=C1N(CCSCc2ccc(CN3CCCCC3)cc2)CCN1Cc1cccc2ccccc12` [Compound 2, 1-{2-(4-Piperidinomethylbenzylthio)ethyl}-3-(1-naphthylmethyl)-2-imidazolidinylidenepropanedinitrile] the “% inhibition at 10 μmol/L” value was 94%. `Cc1cccc(CN2CCN(CCSCc3cccc(CN4CCCCC4)c3)C2=C(C#N)C#N)c1C` [Compound 3, 1-{2-(3-Piperidinomethylbenzylthio)ethyl}-3-(2,3-dimethylbenzyl)-2-imidazolidinylidenepropanedinitrile] was tested, and the “% inhibition at 10 μmol/L” value was 91%. In the case of `N#CC(C#N)=C1N(CCCc2ccccc2)CCN1CCSCc1cccc(CN2CCCCC2)c1` [Compound 10, 1-{2-(3-Piperidinomethylbenzylthio)ethyl}-3-(3-phenylpropyl)-2-imidazolidinylidenepropanedinitrile], the “% inhibition at 10 μmol/L” value is reported as 86%.
